Measured values published in patent US20050032165A1, “Potassium channels, nucleotide sequences encoding them, and methods of using same” (BASF AKTIENGESELLSCHAFT, priority 1994, published 2005).

What was measured:
[1] = target: T1, TPKC1 (Homo sapiens, UniProt O95069, D309R/L311V/L365I/T411A/W310L); experiment: TPCK1-induced currents in X. laevis oocytes, two-electrode voltage clamp; type: cell-based; parameters: The TPKC1 ORF was amplified by PCR with 5′ primer; expressed in transfected cells; host or cells: Xenopus laevis oocytes injected with cRNA transcribed from pLP163; conditions: for block of TPKC1 current: relative to Ba2+ (50% at 1 mM), data not shown
T1 sequence (O95069 1-426 D309R/W310L/L311V/L365I/T411A): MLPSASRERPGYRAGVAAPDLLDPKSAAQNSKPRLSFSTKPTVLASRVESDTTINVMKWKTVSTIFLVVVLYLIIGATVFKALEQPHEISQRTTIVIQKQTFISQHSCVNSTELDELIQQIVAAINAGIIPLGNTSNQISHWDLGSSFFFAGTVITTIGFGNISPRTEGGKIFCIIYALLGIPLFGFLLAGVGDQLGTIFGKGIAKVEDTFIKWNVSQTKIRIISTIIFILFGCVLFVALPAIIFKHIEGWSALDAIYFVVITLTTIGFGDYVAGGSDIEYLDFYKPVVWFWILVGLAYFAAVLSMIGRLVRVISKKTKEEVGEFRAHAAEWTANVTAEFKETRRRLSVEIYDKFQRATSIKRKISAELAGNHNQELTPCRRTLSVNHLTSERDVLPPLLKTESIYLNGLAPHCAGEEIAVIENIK
Excerpt: The expression vector pLP160 was generated by inserting a poly (A)n tract (n=30) followed by a BglII site between the Not1 and XbaI sites of pBluescript SK (+/−) (Stratagene). The final vector contains a deletion from the poly(A) tract through the BamH1 site. The TPKC1 ORF was amplified by PCR with 5′ primer (5′-AAAAAGCTTGCCACCATGCTTCCCAGCGCC-3′) and 3′ primer (5′-CTA TTT GAT GTT CTC-3′), digested with the HindIII and inserted into the vector pLP160 digested with HindIII and SmaI to give pLP163. This construct was linearized with BglII for in vitro cRNA transcription with T7 RNA polymerase (Ambion). The cRNA was quantified by gel electrophoresis using RNA standards (Gibco BRL). One ng of TPKC1 cRNA (23 nl of 40 ng/μl solution) was microinjected into defolliculated oocytes from Xenopus laevis. Oocytes were incubated at 17° C. with gentle shaking in ND96 medium. Whole cell electrophysiological recordings were taken 1-3 days post-injection at room temperature in a constantly-perfusing bath using a two-electrode voltage clamp protocol of 300 ms pulses from −150 to +60 mV from a holding potential of −90 mV. The interval between pulses was one second. Electrodes (3 MΩ current injection, 30 MΩ voltage recording) contained 4 M potassium acetate.

[2] = target: T2, KAT1 (Arabidopsis thaliana, UniProt Q39128); experiment: Yeast agar plate bioassay, KAT-dependent growth of CY162; type: cell-based, plant; conditions: CY162 yeast bearing pKAT1; filter disk with 20 μl of 1 M solution; arginine phosphate agar, 0.2 mM KCl
T2 construct: expressed in transfected cells; host or cells: Saccharomyces cerevisiae CY162 carrying pKAT1
T2 sequence (Q39128 whole entry): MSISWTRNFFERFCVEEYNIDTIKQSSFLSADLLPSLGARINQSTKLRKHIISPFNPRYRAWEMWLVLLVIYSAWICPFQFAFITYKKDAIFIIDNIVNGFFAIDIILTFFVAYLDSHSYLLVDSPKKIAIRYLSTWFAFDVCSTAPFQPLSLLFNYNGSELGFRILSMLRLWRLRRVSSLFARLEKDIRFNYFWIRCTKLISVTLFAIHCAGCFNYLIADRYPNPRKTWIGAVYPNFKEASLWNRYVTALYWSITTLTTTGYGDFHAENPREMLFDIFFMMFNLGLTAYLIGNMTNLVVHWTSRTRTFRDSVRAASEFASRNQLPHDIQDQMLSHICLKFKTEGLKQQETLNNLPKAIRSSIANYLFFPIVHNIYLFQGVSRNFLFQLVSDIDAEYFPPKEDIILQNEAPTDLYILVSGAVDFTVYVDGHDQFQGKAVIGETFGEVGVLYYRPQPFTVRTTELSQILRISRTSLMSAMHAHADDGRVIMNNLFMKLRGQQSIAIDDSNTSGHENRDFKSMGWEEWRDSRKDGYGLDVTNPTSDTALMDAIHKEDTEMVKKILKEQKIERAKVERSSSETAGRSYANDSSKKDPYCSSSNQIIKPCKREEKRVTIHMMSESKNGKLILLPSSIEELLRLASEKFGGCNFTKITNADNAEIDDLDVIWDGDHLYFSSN
Description: (§1) FIG. 8. Inhibition of growth of yeast cells containing heterologous potassium channels. CY162 cells (10^5) bearing the indicated plasmids are plated in arginine phosphate agar medium containing 0.2 mM potassium chloride. Sterile filter disks were placed on the surface of the agar and saturated with 20 μl of a 1 M solution of potassium channel blocking compound. Clockwise from upper left-hand comer is BaCl2, CsCl, TEA, and RbCl. KCl is applied to the center disk.
(§2) Yeast strains dependent on heterologous potassium channels for growth should be sensitive to non-specific potassium channel blocking compounds. To test the potassium channel blocking properties of several compounds, a convenient agar plate bioassay is employed. Strains containing pKAT1, pRATRAK, pDmORF1, and pYES2 are plated in arginine-phosphate-dextrose agar medium lacking ura and containing various amounts of potassium chloride. Arginine-phosphate-dextrose medium is used to avoid interference from potassium and ammonium ions present in standard synthetic yeast culture medium. Sterile filter disks were placed on the surface of the agar and saturated with potassium channel blocking ions CsCl, BaCl2, and TEA. The growth of heterologous potassium channel containing strains is inhibited by potassium channel blocking ions, in a channel dependent manner. DmORF1-dependent growth is blocked by BaCl2 but not by CsCl or TEA. KAT-dependent growth is blocked by BaCl2, CsCl and TEA. RATRAK-dependent growth is blocked by BaCl2, CsCl and TEA to a much greater extent than pKAT1, reflecting in part a slower growth rate of pRATRAK-containing cells.

[3] = target: T3, DmORF1 (Drosophila melanogaster, UniProt Q94526); experiment: DmORF1-induced currents in X. laevis oocytes, two-electrode voltage clamp; type: cell-based; parameters: A single long open reading frame sufficient to encode a protein of 618 amino acids (predicted MW 68 kDa) is encoded in pDmORF1; expressed in transfected cells; conditions: two-electrode whole-cell voltage clamp
T3 sequence (Q94526 other isoform, or with tags, fused parts or gaps with the stated changes): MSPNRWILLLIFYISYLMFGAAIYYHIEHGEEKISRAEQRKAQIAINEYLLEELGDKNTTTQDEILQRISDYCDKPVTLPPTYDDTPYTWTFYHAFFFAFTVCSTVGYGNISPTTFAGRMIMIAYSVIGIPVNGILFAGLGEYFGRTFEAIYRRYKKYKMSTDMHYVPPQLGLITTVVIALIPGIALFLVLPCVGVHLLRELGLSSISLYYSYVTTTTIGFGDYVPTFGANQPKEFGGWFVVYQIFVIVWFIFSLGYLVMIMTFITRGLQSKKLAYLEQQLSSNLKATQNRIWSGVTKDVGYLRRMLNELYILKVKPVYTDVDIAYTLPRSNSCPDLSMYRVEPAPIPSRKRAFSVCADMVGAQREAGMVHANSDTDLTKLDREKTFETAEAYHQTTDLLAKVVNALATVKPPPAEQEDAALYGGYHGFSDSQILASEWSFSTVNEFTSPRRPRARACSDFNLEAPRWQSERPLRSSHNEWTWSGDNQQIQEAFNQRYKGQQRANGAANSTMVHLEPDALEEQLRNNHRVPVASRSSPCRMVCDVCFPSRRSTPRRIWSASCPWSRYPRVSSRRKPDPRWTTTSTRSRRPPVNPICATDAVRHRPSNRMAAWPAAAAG
Description: To test this hypothesis, the electrophysiological properties of the putative potassium channel encoded by DmORF1 was examined by expression in X. laevis oocytes. Currents were measured by two-electrode whole-cell voltage clamp. DNA sequences encoding the open reading frame of DmORF1 were amplified by polymerase chain reaction (PCR) using the following oligonucleotides:
The full length PCR product was cloned into corresponding sites in pSP64 poly A (Promega), forming pMP147. Template DNA was linearized with EcoRI and RNA transcribed using the Message Machine (Ambion) in vitro transcription kit according to manufacturers instructions. A sample of the RNA was resolved in a MOPS-acetate-formaldehyde agarose gel and RNA content was estimated by ethidium bromide staining. The remainder was stored on dry ice. X. laevis oocytes were isolated and injected with 50 nl of sterile TE containing 5-20 ng transcript according to published procedures. After three days, whole oocyte currents were recorded using a two-electrode voltage clamp. Electrodes contained 3M KCl and had resistances of 0.3-1.0 MW. Recordings were performed faith constant perfusion at room temperature in the presence of either low (10 mM) or high (90 mM) potassium chloride.

[4] = target: T4, RATRAK (Rattus norvegicus, UniProt P63142); experiment: Yeast agar plate bioassay, RATRAK-dependent growth of CY162; type: cell-based; conditions: CY162 yeast bearing pRATRAK; filter disk with 20 μl of 1 M solution; blocked to a much greater extent than pKAT1
T4 construct: expressed in transfected cells; host or cells: Saccharomyces cerevisiae CY162 carrying pRATRAK
T4 sequence (P63142 whole entry): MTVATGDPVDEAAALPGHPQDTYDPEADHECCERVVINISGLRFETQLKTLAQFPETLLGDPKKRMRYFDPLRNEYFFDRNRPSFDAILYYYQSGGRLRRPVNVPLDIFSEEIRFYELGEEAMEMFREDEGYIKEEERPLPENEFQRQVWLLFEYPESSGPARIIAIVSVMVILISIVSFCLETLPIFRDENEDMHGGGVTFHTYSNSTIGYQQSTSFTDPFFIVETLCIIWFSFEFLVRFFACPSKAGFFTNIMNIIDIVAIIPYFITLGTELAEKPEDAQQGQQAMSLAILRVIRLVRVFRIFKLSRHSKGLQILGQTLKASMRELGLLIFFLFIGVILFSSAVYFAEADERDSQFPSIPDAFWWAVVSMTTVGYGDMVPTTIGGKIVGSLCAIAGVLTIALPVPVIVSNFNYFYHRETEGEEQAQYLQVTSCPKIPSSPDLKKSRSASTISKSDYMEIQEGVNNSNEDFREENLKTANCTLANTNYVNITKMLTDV
Description: as §1, §2

[5] = target: T3, DmORF1; experiment: Yeast agar plate bioassay, DmORF1-dependent growth of CY162; type: cell-based; parameters: A single long open reading frame sufficient to encode a protein of 618 amino acids (predicted MW 68 kDa) is encoded in pDmORF1; expressed in transfected cells; host or cells: Saccharomyces cerevisiae CY162 (trk1 trk2) carrying pDmORF1 (pYES2 library plasmid); conditions: CY162 yeast bearing pDmORF1; filter disk with 20 μl of 1 M solution; arginine phosphate agar, 0.2 mM KCl
Description: as §1, §2

[6] = target: T3, DmORF1; experiment: 86Rb uptake into CY162 cells containing DmORF1; type: cell-based; parameters: A single long open reading frame sufficient to encode a protein of 618 amino acids (predicted MW 68 kDa) is encoded in pDmORF1; expressed in transfected cells; host or cells: Saccharomyces cerevisiae CY162 (trk1 trk2) carrying pDmORF1 (pYES2 library plasmid); conditions: CY162-DmORF1 yeast cells, Ca-MES buffer, room temperature
Description: Expression of DmORF permits CY162 cells to grow on medium containing a low concentration of potassium, implying that DmORF1 supplies high affinity potassium uptake capacity. To characterize the potassium uptake properties of CY162 cells containing DmORF1, ^86Rb uptake studies were performed.
Yeast strains containing heterologous potassium-expression plasmids CY162-DmORF1, CY162-pKAT and the control strain CY162-pYES2 (Clontech) were cultured overnight in SC Gal-ura containing 0.1 M KCl. The cells were harvested, washed with sterile doubled distilled water and starved for K^+ for 6 hours in Ca-MES buffer. Cells were washed again and distributed to culture tubes (10^8 cells/tube) containing ^86RbCl in Ca-MES buffer.

[7] = target: T1, TPKC1; experiment: Growth of TPKC1-containing CY162 cells on low potassium media; type: cell-based; parameters: The TPKC1 ORF was amplified by PCR with 5′ primer; expressed in transfected cells; conditions: low (2-3 mM KCl) potassium media
Excerpt: The TPKC1 ORF was amplified using oligos that added restriction endonuclease cleavage sites appropriate for insertion into the yeast expression vectors pLP100 and pYES2 (Invitrogen). The corresponding TPKC1 expression plasmids, pLP155 and pLP156, were constructed using standard molecular biological methodology and used to transform S. cerevisiae CY162 cells using the lithium acetate method. The resulting yeast strains were examined for their ability to grow on standard synthetic agar media containing a low concentration of KCl. Expression of TPKC1 in CY162 cells supports their growth on low (2-3 mM KCl) potassium media. […] The growth of TPKC1-containing CY162 cells was inhibited by the known potassium channel blockers Ba^2+, Ca^2+, Cs^+, and quinine, but not by TEA. The oligos used for the cloning of 5′ and 3′ RACE fragments were used in this analysis as well.
LY890 (MAT trk1:: LYS2 trk2::TRP1 ura3-52 lys2-801, ade2-101, trp1-Δ63, his3-Δ200, leu2-Δ1) was constructed by deletion of the TRK1 and TRK2 genes from the parent yeast strain YPH500 (Stratagene). The full length TPKC1 ORF fragment was generated by PCR; 5′ primer (5′-AAAAGATCTAAAATGCTTCCCAGCGCC-3′), 3′ primer (AAAGTCGACCTATTTGATGTTCTCAAT-3′) and inserted into the yeast expression vector pLP100 [18] to yield pLP155. pLP155 was used to transform S. cerevisiae LY890 cells using standard methods. CY162 was constructed as described in J. A. Anderson et al., Proc. Natl. Acad. Sci. USA 89, 3736-3740 (1992). Yeast cells (10^5) containing the indicated plasmids were plated in RPD (arginine phosphate glucose) low potassium (2 mM) agar media and compounds applied to the surface of the agar.

[8] = system: CY162 cells; experiment: Yeast agar plate bioassay, control pYES2-containing CY162 strain; type: cell-based, Saccharomyces cerevisiae; conditions: CY162 bearing pYES2; low potassium agar; compound on filter disk
Description: as §1
as §2, with “KAT-dependent growth is blocked by BaCl2, CsCl and TEA. RATRAK-dependent growth is blocked by BaCl2, CsCl and TEA to a much greater extent than pKAT1, reflecting in part a slower growth rate of pRATRAK-containing cells.” left out

Structure (SMILES)	block of TPKC1 current [1]	block of KAT-dependent growth [2]	block of RATRAK-dependent growth [4]	block of DmORF1-dependent growth [5]	inhibition of growth of TPKC1-containing CY162 cells [7]	other results
Nc1ccncc1 [4-AP]	block to a lesser degree					
[Ba+2].[Cl-].[Cl-] [BaCl2]		blocked	blocked	blocked	inhibited	inhibition of TPKC1 current ([1]; applied at 1 mM, FIG. 11D): 50%; attenuation of DmORF1 potassium currents [3]: greatly attenuated; inhibition of 86Rb uptake [6]: inhibited
[Ca+2] [Ca^2+]	block to a lesser degree				inhibited	
[Cl-].[Cs+] [CsCl]	failed to block	blocked	blocked	not	inhibited	
[Cl-].[K+] [KCl]						growth of control pYES-containing strain around applied compound [8]: grows only around applied
[Cl-].[Rb+] [RbCl]						growth of control pYES-containing strain around applied compound [8]: grows only around applied
CC[N+](CC)(CC)CC [TEA]	failed to block	blocked	blocked	not	not	
C=C[C@H]1C[N@@]2CC[C@H]1C[C@H]2[C@H](O)c1ccnc2ccc(OC)cc12 [quinine]	block to a lesser degree				inhibited	
